Holding throughout (type): biochemical
One experiment concerns the target T1, Human Tyk2 kinase domain (Homo sapiens, UniProt P29597).
T1 construct: comprising amino acids 886 to 1187 with 10 additional histidine residues; 10xHis (histidine tag) (C, cleaved yes); made in house
T1 sequence (P29597 886-1187): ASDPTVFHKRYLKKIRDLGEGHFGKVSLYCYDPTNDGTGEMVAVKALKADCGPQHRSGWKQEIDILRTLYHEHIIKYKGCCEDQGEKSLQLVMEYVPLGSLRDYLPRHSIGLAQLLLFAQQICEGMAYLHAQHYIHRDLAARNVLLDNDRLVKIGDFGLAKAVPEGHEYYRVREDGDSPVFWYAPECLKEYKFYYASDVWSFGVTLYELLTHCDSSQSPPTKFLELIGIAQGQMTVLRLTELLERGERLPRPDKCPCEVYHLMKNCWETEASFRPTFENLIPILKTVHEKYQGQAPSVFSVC
The experiment is described as follows: Tyk2 Inhibition Assay (Omnia kinase fluorescence peptide substrate assay). The following applies: averaged IC50 ranges; assay of Example A; 10 μM (Km app) or 1 mM ATP, 2 nM Tyk2. From the text:
(§1) The assays described in Examples A, B, C and D for the determination of Tyk2, JAK1, JAK2 and JAK3 kinase activity, respectively, utilized the Omnia® Kinase fluorescence peptide substrate-based technology (Invitrogen). The specific components of the assay mixture are described in Examples A, B, C and D. In these assays, Mg^2+ is chelated upon phosphorylation of the Omnia peptide by the kinase to form a bridge between the chelation-enhanced fluorophore Sox and the phosphate, resulting in an increase in fluorescence emission at 485 nm when excited at […]. The reactions were therefore read at excitation 360 nm and emission was measured at 485 nm every 50 seconds for 45 minutes using a PerkinElmer EnVision Multilabel Plate Reader.
(§2) The final buffer conditions for Tyk2, JAK1, JAK2, and JAK3 assays were as follows: 25 mM HEPES, pH 7.4, 10 mM MgCl2, 0.01% Triton X-100 and 1 mM DTT.
(§3) Compounds were prepared at 50× the final concentration in DMSO by conducting 3-fold serial dilutions from a 500-μM intermediate dilution to give a 10-point dosing curve having a high dose of 10 μM. Two-μL aliquots of these were transferred to a fresh plate for a ten-fold intermediate dilution with assay buffer. Five-μL aliquots of the diluted compounds were then transferred to 20-μL of assay mixtures described in Examples A, B, C and D for a final concentration of DMSO of 2%. A standard or reference compound was typically included on each assay plate to validate that plate. For each plate, percent of control (POC) values were calculated for each well according to the following equation:
(§4) where Xmax=Average Uninhibited Controls • Xmin=Average Background IC50's were estimated from the POC's using a standard 4-parameter logistic model:
(§5) where • A=Minimum Y (Bottom Asymptote) • B=Maximum Y (Top Asymptote) • C=EC50 • D=Slope Factor • X=Compound Concentration (nM) • Y=POC
(§6) The IC50 is defined as the concentration of inhibitor at which the POC equals 50 for the fitted curve.
Compounds of Formula I were screened for their ability to inhibit Tyk2 using the general enzyme inhibition assay method, in which the assay mixture contained 10 μM (Km app) or 1 mM ATP, 8 μM Omnia® Y12 peptide (Catalog #IVGN KPZ3121C; Invitrogen Corporation, Carlsbad, Calif.) and 2 nM Tyk2 in a total volume of 20 μL. Human Tyk2 kinase domain, comprising amino acids 886 to 1187 with 10 additional histidine residues (histidine tag) on the carboxy terminus, was expressed and purified from bacculovirus in-house at Array BioPharma Inc. (Boulder, Colo.). The histidine tag was cleaved after purification using standard conditions.

A further experiment deals with T2, JAK1 (Homo sapiens, UniProt P23458).
T2 construct: purchased Invitrogen Corporation, Carlsbad, Calif; PV4775
T2 sequence (P23458 whole entry): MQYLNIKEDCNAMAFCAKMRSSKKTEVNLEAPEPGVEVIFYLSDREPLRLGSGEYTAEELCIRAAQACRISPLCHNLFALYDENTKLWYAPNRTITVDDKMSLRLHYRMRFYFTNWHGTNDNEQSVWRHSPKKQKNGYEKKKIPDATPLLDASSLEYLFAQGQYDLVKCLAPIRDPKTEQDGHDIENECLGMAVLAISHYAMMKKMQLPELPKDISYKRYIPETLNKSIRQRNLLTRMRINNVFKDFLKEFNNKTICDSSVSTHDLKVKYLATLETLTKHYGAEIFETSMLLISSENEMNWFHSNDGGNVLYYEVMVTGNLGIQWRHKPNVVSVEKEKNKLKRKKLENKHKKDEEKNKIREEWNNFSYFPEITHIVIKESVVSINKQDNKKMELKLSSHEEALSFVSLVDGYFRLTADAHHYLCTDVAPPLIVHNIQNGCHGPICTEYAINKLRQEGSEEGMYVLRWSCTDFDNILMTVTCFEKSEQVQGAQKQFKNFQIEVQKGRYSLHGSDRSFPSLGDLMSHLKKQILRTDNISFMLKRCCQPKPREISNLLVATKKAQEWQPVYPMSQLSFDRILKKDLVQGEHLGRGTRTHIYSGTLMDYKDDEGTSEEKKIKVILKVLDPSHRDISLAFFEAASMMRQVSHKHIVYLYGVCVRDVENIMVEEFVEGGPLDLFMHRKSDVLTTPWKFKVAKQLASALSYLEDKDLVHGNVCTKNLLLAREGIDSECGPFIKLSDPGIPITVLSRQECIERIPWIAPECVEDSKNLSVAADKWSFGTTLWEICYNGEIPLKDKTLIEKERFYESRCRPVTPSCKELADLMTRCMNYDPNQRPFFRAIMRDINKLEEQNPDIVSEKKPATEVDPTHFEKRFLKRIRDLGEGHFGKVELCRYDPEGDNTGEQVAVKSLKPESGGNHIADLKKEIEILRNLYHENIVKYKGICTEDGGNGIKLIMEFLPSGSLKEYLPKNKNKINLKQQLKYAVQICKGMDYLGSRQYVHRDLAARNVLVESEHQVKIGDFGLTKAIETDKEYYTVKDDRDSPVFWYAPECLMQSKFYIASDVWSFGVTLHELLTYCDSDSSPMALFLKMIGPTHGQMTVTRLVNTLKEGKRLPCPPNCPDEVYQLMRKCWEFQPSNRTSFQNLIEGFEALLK
In words: JAK1 Inhibition Assay (Omnia kinase fluorescence peptide substrate assay). The note with it: averaged IC50 ranges; assay of Example B; 40 μM (Km app) or 1 mM ATP, 15 nM JAK1.
Source text: as §1, §2, §3, §4, §5, §6
Compounds of Formula I were screened for their ability to inhibit JAK1 using the general enzyme inhibition assay method, in which the assay mixture contained 40 μM (Km app) or 1 mM ATP, 8 μM Omnia® Y12 peptide (Catalog #IVGN KPZ3121C; Invitrogen Corporation, Carlsbad, Calif.) and 15 nM JAK1 in a total volume of 20 μL. JAK1 was purchased from Invitrogen Corporation, Carlsbad, Calif. (catalog #IVGN PV4775).

In the next experiment the target is T3, JAK2 (Homo sapiens, UniProt O60674).
T3 construct: purchased Invitrogen Corporation, Carlsbad, Calif; PV4288
T3 sequence (O60674 whole entry): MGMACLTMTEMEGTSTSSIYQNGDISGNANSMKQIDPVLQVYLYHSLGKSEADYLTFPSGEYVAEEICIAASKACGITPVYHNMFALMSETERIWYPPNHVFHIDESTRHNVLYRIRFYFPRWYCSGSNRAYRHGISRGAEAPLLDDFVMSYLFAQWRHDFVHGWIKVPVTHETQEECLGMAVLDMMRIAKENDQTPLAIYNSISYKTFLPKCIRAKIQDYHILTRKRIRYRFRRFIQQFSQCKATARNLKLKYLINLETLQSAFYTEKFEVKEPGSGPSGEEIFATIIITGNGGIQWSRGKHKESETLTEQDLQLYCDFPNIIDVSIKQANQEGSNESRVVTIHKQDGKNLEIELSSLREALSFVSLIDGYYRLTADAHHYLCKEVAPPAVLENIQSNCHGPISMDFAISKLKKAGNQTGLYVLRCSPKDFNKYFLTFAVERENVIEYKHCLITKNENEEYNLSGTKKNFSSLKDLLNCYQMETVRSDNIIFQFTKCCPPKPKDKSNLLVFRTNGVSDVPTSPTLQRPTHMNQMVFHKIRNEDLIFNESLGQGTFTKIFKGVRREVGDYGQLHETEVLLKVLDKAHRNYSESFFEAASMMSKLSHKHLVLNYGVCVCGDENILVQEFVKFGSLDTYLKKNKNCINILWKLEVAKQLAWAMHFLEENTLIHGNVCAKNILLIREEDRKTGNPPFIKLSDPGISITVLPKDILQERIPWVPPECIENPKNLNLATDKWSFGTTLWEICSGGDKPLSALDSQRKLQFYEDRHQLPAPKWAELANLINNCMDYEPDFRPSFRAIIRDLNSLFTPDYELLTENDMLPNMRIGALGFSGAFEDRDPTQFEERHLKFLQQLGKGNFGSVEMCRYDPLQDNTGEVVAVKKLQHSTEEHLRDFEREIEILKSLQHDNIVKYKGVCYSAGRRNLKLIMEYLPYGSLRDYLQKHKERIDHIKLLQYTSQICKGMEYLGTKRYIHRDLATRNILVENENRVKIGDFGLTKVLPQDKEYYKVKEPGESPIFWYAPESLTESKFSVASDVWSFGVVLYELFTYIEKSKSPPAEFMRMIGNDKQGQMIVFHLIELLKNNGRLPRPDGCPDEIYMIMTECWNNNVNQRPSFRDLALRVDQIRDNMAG
In words: JAK2 Inhibition Assay (Omnia kinase fluorescence peptide substrate assay). The note with it: averaged IC50 ranges; assay of Example C; 25 μM (Km app) or 1 mM ATP, 5 nM JAK2.
Source text: as §1, §2, §3, §4, §5, §6
Compounds of Formula I were screened for their ability to inhibit JAK2 using the general enzyme inhibition assay method, in which the assay mixture contained 25 μM (Km app) or 1 mM ATP, 10 μM Omnia® Y7 peptide (Catalog #IVGN KNZ3071C, Invitrogen Corporation, Carlsbad, Calif.) and 5 nM JAK2 in a total volume of 20 μL. JAK2 was purchased from Invitrogen Corporation, Carlsbad, Calif. (catalog #IVGN PV4288).

The next experiment has as its target T4, JAK3 (Homo sapiens, UniProt P52333).
T4 construct: purchased Invitrogen Corporation, Carlsbad, Calif; PV4080
T4 sequence (P52333 1-1124): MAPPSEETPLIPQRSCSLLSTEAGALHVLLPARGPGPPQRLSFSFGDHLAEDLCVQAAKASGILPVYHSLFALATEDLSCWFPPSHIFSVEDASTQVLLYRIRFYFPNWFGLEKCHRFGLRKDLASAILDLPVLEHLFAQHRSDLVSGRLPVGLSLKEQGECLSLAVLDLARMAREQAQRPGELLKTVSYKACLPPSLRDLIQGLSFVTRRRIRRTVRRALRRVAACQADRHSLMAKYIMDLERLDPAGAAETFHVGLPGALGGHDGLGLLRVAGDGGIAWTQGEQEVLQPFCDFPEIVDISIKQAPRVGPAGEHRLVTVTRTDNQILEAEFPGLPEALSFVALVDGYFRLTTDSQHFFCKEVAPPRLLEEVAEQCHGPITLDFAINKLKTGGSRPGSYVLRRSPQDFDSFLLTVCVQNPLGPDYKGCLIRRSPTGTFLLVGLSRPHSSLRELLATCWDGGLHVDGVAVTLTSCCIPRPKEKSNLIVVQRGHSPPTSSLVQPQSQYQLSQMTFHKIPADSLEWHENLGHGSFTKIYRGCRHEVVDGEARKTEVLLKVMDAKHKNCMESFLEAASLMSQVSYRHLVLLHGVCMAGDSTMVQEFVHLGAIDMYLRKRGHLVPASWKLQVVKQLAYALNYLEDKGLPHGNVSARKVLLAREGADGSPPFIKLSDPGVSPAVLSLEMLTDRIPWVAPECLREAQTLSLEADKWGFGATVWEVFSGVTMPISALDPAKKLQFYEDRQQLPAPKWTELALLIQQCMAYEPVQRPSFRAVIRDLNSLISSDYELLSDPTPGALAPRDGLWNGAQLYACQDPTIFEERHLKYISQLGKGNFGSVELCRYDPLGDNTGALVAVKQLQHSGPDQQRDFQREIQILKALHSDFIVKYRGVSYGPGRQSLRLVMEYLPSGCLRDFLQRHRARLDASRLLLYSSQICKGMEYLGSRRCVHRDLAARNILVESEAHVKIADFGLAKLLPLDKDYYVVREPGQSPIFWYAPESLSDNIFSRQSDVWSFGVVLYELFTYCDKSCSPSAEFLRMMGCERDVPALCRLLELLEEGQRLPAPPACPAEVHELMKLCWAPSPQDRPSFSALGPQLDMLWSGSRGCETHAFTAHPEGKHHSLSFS
In words: JAK3 Inhibition Assay (Omnia kinase fluorescence peptide substrate assay). The note with it: averaged IC50 ranges; assay of Example D; 10 μM (Km app) or 1 mM ATP, 2.5 nM JAK3.
Source text: as §1, §2, §3, §4, §5, §6
Compounds of Formula I were screened for their ability to inhibit JAK3 using the general enzyme inhibition assay method, in which the assay mixture contained 10 μM (Km app) or 1 mM ATP, 10 μM Omnia® Y7 peptide (Catalog #IVGN KNZ3071C, Invitrogen Corporation, Carlsbad, Calif.) and 2.5 nM JAK3 in a total volume of 20 μL. JAK3 was purchased from Invitrogen Corporation, Carlsbad, Calif. (catalog #IVGN PV4080).

With `Cn1cc(-c2cc3nccn3c(-c3cnn(C(CC#N)C4CCCC4)c3)n2)cn1` (centres unmarked) [Example 17, 3-cyclopentyl-3-(4-(7-(1-methyl-1H-pyrazol-4-yl)imidazo[1,2-c]pyrimidin-5-yl)-1H-pyrazol-1-yl)propanenitrile], the IC50 on Human Tyk2 kinase domain was below 10 nM; at JAK1, 10 to 100 nM; at JAK2, 10 to 100 nM; at JAK3, above 1000 nM.

Consider `Cn1cc(-c2cc3nccn3c(-c3cnn(C(CC#N)C(C)(C)C)c3)n2)cn1` (centres unmarked) [Example 18, 4,4-dimethyl-3-(4-(7-(1-methyl-1H-pyrazol-4-yl)imidazo[1,2-c]pyrimidin-5-yl)-1H-pyrazol-1-yl)pentanenitrile], for which the IC50 on Human Tyk2 kinase domain is 10 to 100 nM; at JAK1 it was 100 to 1000 nM; against JAK2, 100 to 1000 nM; against JAK3 it was above 1000 nM.

For `Cn1cc(-c2cc3nccn3c(-c3cnn(CCC#N)c3)n2)cn1` [Example 19, 3-(4-(7-(1-methyl-1H-pyrazol-4-yl)imidazo[1,2-c]pyrimidin-5-yl)-1H-pyrazol-1-yl)propanenitrile], the IC50 was 10 to 100 nM on Human Tyk2 kinase domain, 100 to 1000 nM against JAK1, 100 to 1000 nM against JAK2 and above 1000 nM against JAK3.

In the case of `Cn1cc(-c2cc3nccn3c(-c3cnn(C(CC#N)C4CCC4)c3)n2)cn1` (centres unmarked) [Example 20, 3-cyclobutyl-3-(4-(7-(1-methyl-1H-pyrazol-4-yl)imidazo[1,2-c]pyrimidin-5-yl)-1H-pyrazol-1-yl)propanenitrile], the IC50 is below 10 nM at Human Tyk2 kinase domain, 10 to 100 nM on JAK1, 10 to 100 nM against JAK2 and above 1000 nM on JAK3.

Consider `Cn1cc(-c2cc3nccn3c(-c3cnn(C4(CC#N)CCN(C(=O)OC(C)(C)C)CC4)c3)n2)cn1` [Example 21, tert-butyl 4-(cyanomethyl)-4-(4-(7-(1-methyl-1H-pyrazol-4-yl)imidazo[1,2-c]pyrimidin-5-yl)-1H-pyrazol-1-yl)piperidine-1-carboxylate], for which the IC50 is 100 to 1000 nM at Human Tyk2 kinase domain, above 1000 nM on JAK1, above 1000 nM against JAK2 and above 1000 nM against JAK3.

Regarding `Cn1cc(-c2cc3nccn3c(-c3cnn(C4(CC#N)CCCCC4)c3)n2)cn1` [Example 22, 2-(1-(4-(7-(1-methyl-1H-pyrazol-4-yl)imidazo[1,2-c]pyrimidin-5-yl)-1H-pyrazol-1-yl)cyclohexyl)acetonitrile], the IC50 was 10 to 100 nM against Human Tyk2 kinase domain, 100 to 1000 nM against JAK1, 100 to 1000 nM against JAK2 and above 1000 nM on JAK3.

With `Cn1cc(-c2cc3nccn3c(-c3cnn(C4(CC#N)CCCC4)c3)n2)cn1` [Example 23, 2-(1-(4-(7-(1-methyl-1H-pyrazol-4-yl)imidazo[1,2-c]pyrimidin-5-yl)-1H-pyrazol-1-yl)cyclopentyl)acetonitrile], the IC50 at Human Tyk2 kinase domain is 10 to 100 nM; against JAK1, 100 to 1000 nM; against JAK2, 100 to 1000 nM; at JAK3, above 1000 nM.

`Cn1cc(-c2cc3nccn3c(-c3cnn(C4(CC#N)COC4)c3)n2)cn1` [Example 24, 2-(3-(4-(7-(1-methyl-1H-pyrazol-4-yl)imidazo[1,2-c]pyrimidin-5-yl)-1H-pyrazol-1-yl)oxetan-3-yl)acetonitrile]: the IC50 against Human Tyk2 kinase domain was 10 to 100 nM; at JAK1, 10 to 100 nM; on JAK2, 10 to 100 nM; at JAK3, above 1000 nM.

On to `Cn1cc(-c2cc3ncc(Cl)n3c(-c3cnn(C(CC#N)C4CC4)c3)n2)cn1` (centres unmarked) [Example 25, 3-(4-(3-chloro-7-(1-methyl-1H-pyrazol-4-yl)imidazo[1,2-c]pyrimidin-5-yl)-1H-pyrazol-1-yl)-3-cyclopropylpropanenitrile], for which the 50% inhibitory concentration (IC50) was below 10 nM against Human Tyk2 kinase domain, 10 to 100 nM against JAK1, 10 to 100 nM against JAK2 and 100 to 1000 nM at JAK3.

As to `Cn1cc(-c2cc3ncc(C#N)n3c(-c3cnn(C(CC#N)C4CC4)c3)n2)cn1` (centres unmarked) [Example 26, 5-(1-(2-cyano-1-cyclopropylethyl)-1H-pyrazol-4-yl)-7-(1-methyl-1H-pyrazol-4-yl)imidazo[1,2-c]pyrimidine-3-carbonitrile], the half-maximal inhibitory concentration (IC50) against Human Tyk2 kinase domain is 100 to 1000 nM; on JAK1, above 1000 nM; against JAK2, 100 to 1000 nM; against JAK3 it was above 1000 nM.

As to `CC(=O)N1CCC(C(CC#N)n2cc(-c3nc(-c4cnn(C)c4)cc4nccn34)cn2)CC1` (centres unmarked) [Example 27, 3-(1-acetylpiperidin-4-yl)-3-(4-(7-(1-methyl-1H-pyrazol-4-yl)imidazo[1,2-c]pyrimidin-5-yl)-1H-pyrazol-1-yl)propanenitrile], the IC50 on Human Tyk2 kinase domain is 100 to 1000 nM; against JAK1, 100 to 1000 nM; on JAK2, 100 to 1000 nM; against JAK3 it was above 1000 nM.

Source of the values: patent US8962596B2 (Array BioPharma Inc., priority 2010, dated 2015).
